According to PMC10799935, “Discovery of a peripheral 5HT2A antagonist as a clinical candidate for metabolic dysfunction-associated steatohepatitis” (Nature Communications, 2024):
Values joined by “and” are separate entries in the source; they are usually repeats but may differ in a detail not shown here. Identical values can stand only once.

Experiments:
[1] = test system: HFD-fed C57BL/6J mice; experiment: DIO mice: intraperitoneal glucose tolerance test (IPGTT); format: in vivo, mouse; settings: GTT, DIO mice, PO
Method: For the glucose tolerance test, overnight fasted mice were intraperitoneally injected with 2 g/kg D-glucose (Sigma-Aldrich). Glucose concentrations were measured using a Gluco DR. TOP glucometer (Allmedicus). The AUC (area under the curve) during the GTT was calculated using GraphPad Prism 8.0 software (La Jolla, CA, USA) by the trapezoidal method.

[2] = test system: HFD-fed C57BL/6J mice; experiment: DIO mice: liver histology (H&E), NAFLD activity score (steatosis, inflammation, ballooning); format: in vivo, mouse; set-up: key to Steatosis (NAFLD Activity Score), individual animals / Steatosis score, group mean: steatosis score 0-3 (0 <5% to 3 >66% fat accumulation); key to Total NAFLD Activity Score, difference between medians: Actual (treated vs. Vehicle): total NAS, 0-8 scale (sum of steatosis, inflammation, ballooning); settings: DIO mice; for Lobular inflammation score, Mean Diff. (Vehicle vs. treated) / Steatosis score, Mean Diff. (Vehicle vs. treated) / Total NAFLD Activity Score, Mean Diff. (Vehicle vs. treated): Dunnett's multiple comparisons test; for Lobular inflammation score, group mean / Steatosis score, group mean: PO
Text: Epididymal, inguinal, and liver were harvested, fixed in 10% (w/v) neutral buffered formalin solution (Sigma-Aldrich), and embedded in paraffin. Five-micron-thick tissue sections were deparaffinized, rehydrated, and stained with hematoxylin and eosin (H&E)[10]. The total NAFLD activity score (NAS) is a widely used measure of grading for steatosis, lobular inflammation, and ballooning. The total NAS ranges from 0-8 and is the sum of unweighted scores for steatosis (0: <5%, 1: 5 ~ 33%, 2: 33 ~ 66%, 3: >66% fat accumulation in the liver), lobular inflammation (0: no foci inflammation in x200 field, 1: <2 foci inflammation, 2: 2 ~ 4 foci inflammation, 3: >4 foci inflammation), and hepatocellular ballooning (0: none, 1: few ballooning cells, 2: prominent ballooning cells). MASH was diagnosed when NAS was >5, while non-MASH was diagnosed when NAS was <4. According to the MASH CRN scoring system, a certified pathologist determined the NAS[39]. The histological scoring was performed blindly, without knowledge of any other information.

[3] = 5mpk, individual animals, 5 mg/kg
[4] = 10mpk, individual animals, 10 mg/kg

SMILES: Cc1nc2n(c(=O)c1CCN1CCC(=C3c4ccc(Cl)cc4CCc4cccnc43)CC1)CCCC2O (centres unmarked) [Compound 11c]
- Blood Glucose Level 90 min ([1]; 5mpk, group mean): 359.1 mg/dL
- Blood Glucose Level 90 min [1, 3]: 412.0 mg/dL and 393.0 mg/dL and 445.5 mg/dL and 295.0 mg/dL and 202.0 mg/dL and 352.0 mg/dL and 414.5 mg/dL
- Blood Glucose Level 120 min ([1]; 5mpk, group mean): 270.4 mg/dL
- Blood Glucose Level 120 min [1, 3]: 297.0 mg/dL and 295.0 mg/dL and 358.5 mg/dL and 219.0 mg/dL and 181.0 mg/dL and 242.5 mg/dL and 299.5 mg/dL
- Blood Glucose Level AUC ([1]; 5mpk, group mean): 26885.0 mg·min/dL
- Blood Glucose Level 0 min ([1]; 10mpk, group mean): 183.9 mg/dL
- Blood Glucose Level 0 min [1, 4]: 113.5 mg/dL and 200.5 mg/dL and 204.0 mg/dL and 222.5 mg/dL and 179.0 mg/dL and 184.0 mg/dL
- Blood Glucose Level 15 min ([1]; 10mpk, group mean): 527.5 mg/dL
- Blood Glucose Level 15 min [1, 4]: 483.5 mg/dL and 423.0 mg/dL and 498.0 mg/dL and 646.0 mg/dL and 555.0 mg/dL and 559.5 mg/dL
- Blood Glucose Level 30 min ([1]; 10mpk, group mean): 591.4 mg/dL
- Blood Glucose Level 30 min [1, 4]: 550.5 mg/dL and 531.0 mg/dL and 653.0 mg/dL and 657.0 mg/dL and 577.0 mg/dL and 580.0 mg/dL
- Blood Glucose Level 60 min ([1]; 10mpk, group mean): 486.8 mg/dL
- Blood Glucose Level 60 min [1, 4]: 370.0 mg/dL and 458.5 mg/dL and 558.0 mg/dL and 603.0 mg/dL and 357.5 mg/dL and 574.0 mg/dL
- Blood Glucose Level 90 min ([1]; 10mpk, group mean): 365.9 mg/dL
- Blood Glucose Level 90 min [1, 4]: 283.5 mg/dL and 422.0 mg/dL and 442.0 mg/dL and 440.5 mg/dL and 227.0 mg/dL and 380.5 mg/dL
- Blood Glucose Level 120 min ([1]; 10mpk, group mean): 247.7 mg/dL
- Blood Glucose Level 120 min [1, 4]: 170.0 mg/dL and 260.5 mg/dL and 387.0 mg/dL and 315.5 mg/dL and 148.5 mg/dL and 204.5 mg/dL
- Blood Glucose Level AUC ([1]; 10mpk, group mean): 28219.0 mg·min/dL
- steatosis, lobular inflammation, and hepatocyte ballooning in liver tissue (H&E) ([2]; 5 and 10 mpk, dose-dependent manner): markedly reduced
- Hepatocyte ballooning score, difference between medians: Actual (treated vs. Vehicle) ([2]; 5mpk): 0
- Lobular inflammation score, difference between medians: Actual (treated vs. Vehicle) ([2]; 5mpk): -0.5
- Steatosis score, difference between medians: Actual (treated vs. Vehicle) ([2]; 5mpk): 0
- Total NAFLD Activity Score, difference between medians: Actual (treated vs. Vehicle) ([2]; 5mpk): -1.5
- Lobular inflammation score, Mean Diff. (Vehicle vs. treated) ([2]; 5mpk): 0.3333
- Steatosis score, Mean Diff. (Vehicle vs. treated) ([2]; 5mpk): 0
- Total NAFLD Activity Score, Mean Diff. (Vehicle vs. treated) ([2]; 5mpk): 1.071
- Lobular inflammation score, group median ([2]; 5mpk, Mann-Whitney analysis): 1.500, n=6
- Steatosis score, group median ([2]; 5mpk, Mann-Whitney analysis): 2.000, n=6
- Total NAFLD Activity Score, group median ([2]; 5mpk, Mann-Whitney analysis): 5.000, n=7
- Hepatocyte ballooning score, difference between medians: Actual (treated vs. Vehicle) ([2]; 10mpk): -1
- Lobular inflammation score, difference between medians: Actual (treated vs. Vehicle) ([2]; 10mpk): -1
- Steatosis score, difference between medians: Actual (treated vs. Vehicle) ([2]; 10mpk): -1.5
- Total NAFLD Activity Score, difference between medians: Actual (treated vs. Vehicle) ([2]; 10mpk): -3.5
- Lobular inflammation score, Mean Diff. (Vehicle vs. treated) ([2]; 10mpk): 0.8333
- Steatosis score, Mean Diff. (Vehicle vs. treated) ([2]; 10mpk): 1.5
- Total NAFLD Activity Score, Mean Diff. (Vehicle vs. treated) ([2]; 10mpk): 3.667
- Hepatocyte ballooning score, group median ([2]; 10mpk, Mann-Whitney analysis): 1.000, n=6
- Lobular inflammation score, group median ([2]; 10mpk, Mann-Whitney analysis): 1.000, n=6
- Steatosis score, group median ([2]; 10mpk, Mann-Whitney analysis): 0.5000, n=6
- Total NAFLD Activity Score, group median ([2]; 10mpk, Mann-Whitney analysis): 3.000, n=6
- Lobular inflammation score, group mean ([2]; 5mpk): 1.5
- Steatosis score, group mean ([2]; 5mpk, 5 mg/kg): 2
- Steatosis score, group mean ([2]; 10mpk): 0.5
- Lobular inflammation score, group mean ([2]; 10mpk, 10 mg/kg): 1
